Reference: patent US7235577B1 (priority 2000, dated 2007)
Read-outs that look alike come from different tables or passages of the source.

Tests used:
human IKCa1 channel = human IKCa1 channel (Homo sapiens, UniProt O15554); test: cell-based; conditions: for IKCa1 inhibition compared with clotrimazole: refers to TABLE 8
Protocol: COS-7 cells, maintained in Dulbecco's modified Eagle's medium (DMEM) containing 10% heat-inactivated fetal calf serum, 4 mM L-glutamine and 1 mM Na^+ pyruvate, were transiently transfected with hlKCa1.
(§1) Electrophysiological experiments were carried out in the whole-cell configuration of the patch-clamp technique using an EPC-9 amplifier (HEKA Elektronik, Lambrecht Germany) interfaced to a computer running acquisition and analysis software (Pulse and Pulsfit; HEKA Elektronik). Pipettes were pulled from soft glass capillaries, coated with Sylgard (Dow-Corning, Midland, Mich.), and fire polished to resistances of 2.0–4.5 MΩ measured in the bath. COS-7 cells were trypsinized and plated on glass coverslips 3 h before measurement. […] To prevent activation of the native chloride channels in COS-7 cells an aspartate Ringer solution was used as an external solution (160 mM Na^+ aspartate, 4.5 mM KCl, 2 mM CaCl2, 1 mM MgCl2, 5 mM HEPES, adjusted to pH 7.4 with NaOH, with an osmolarity of 290–310 mosM). 200 ms voltage ramps from −120 mV to 40 mV every 10 s were used. The holding potential in all experiments was −80 mV. Series resistance compensation was not employed. The reduction of slope conductance at −80 mV was used to determine the Kd-value by fitting the values to the Hill equation with a Hill coefficient of unity.

CYP3A4 = CYP3A4 (Homo sapiens, UniProt P08684); test: in vitro; conditions: human
CYP3A4, sequence (P08684 whole entry): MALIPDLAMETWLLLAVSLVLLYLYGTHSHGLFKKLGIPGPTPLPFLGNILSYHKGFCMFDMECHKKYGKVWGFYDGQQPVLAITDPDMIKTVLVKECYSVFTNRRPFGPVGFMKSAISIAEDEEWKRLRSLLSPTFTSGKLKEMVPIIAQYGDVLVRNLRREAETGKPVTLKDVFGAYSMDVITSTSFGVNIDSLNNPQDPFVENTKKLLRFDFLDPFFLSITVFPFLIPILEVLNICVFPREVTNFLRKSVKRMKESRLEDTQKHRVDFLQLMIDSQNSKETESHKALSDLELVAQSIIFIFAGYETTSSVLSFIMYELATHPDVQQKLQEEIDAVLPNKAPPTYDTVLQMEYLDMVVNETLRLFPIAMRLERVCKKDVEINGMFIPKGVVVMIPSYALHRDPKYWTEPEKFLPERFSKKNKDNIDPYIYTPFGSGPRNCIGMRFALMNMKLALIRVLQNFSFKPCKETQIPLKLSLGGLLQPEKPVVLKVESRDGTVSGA
Protocol: The test substances shown in Table 8 were evaluated for their inhibitory effect on the catalytic activity of human cytochrome P450 enzyme. Cytochrome P450 3A4 (CYP3A4) is involved in many drug-drug interactions and in many other pathways in the body including the catabolism of steroids and xenobiotics. Inhibition of this enzyme was measured in 96 well plates with 7-benzyloxy-4-trifluoro-methylcoumarin (BFC) as the substrate and cDNA-derived enzymes in microsomes prepared from baculovirus-infected insect cells.
The inhibition study consisted of the determination of inhibition by the test substance on CYP3A4 catalytic activity. […] The compounds were prepared as 10 mM stock solutions in acetonitrile. Metabolism of the model substrate was assayed by the production of 7-hydroxy-4-trifluoromethylcoumarin metabolite. The metabolite was detected by fluorescence.
Table 10 below provides a list of the name of enzymes examined, the catalog number of the microsomes used as a source of the enzyme, the concentration of the model substrate used, the amount of enzyme used, the final buffer concentration, and the positive control compound.
Assays were conducted in 96 well microtiter plates. The BFC substrate was initially prepared in acetonitrile. […] Six wells were used for one test. […] For the positive controls, 12 wells in a row were used for one test. The positive control inhibitor/enzyme combination was examined in duplicate rows. Wells 1 to 8 contained serial 1:3 dilutions of the inhibitors. The highest inhibitor concentration were as described in the table above. Wells 9 and 10 contained no inhibitor and wells 11 and 12 were blanks for background fluorescence (stop solution added before the enzyme).
After buffer, cofactors and inhibitor addition, the plates were pre-warmed to 37° C. Incubations were initiated by the addition of pre-warmed enzyme and substrate. The final cofactor concentrations were 1.3 mM NADP, 3.3 mM glucose-6-phosphate and 0.4 U/ml glucose-6-phosphate dehydrogenase. The final incubation volume was 0.2 ml. Incubations were carried out for 30 minutes [CYP3A4 (BFC)] and stopped by the addition of 0.075 ml of 80% acetonitrile-20% 0.5M Tris. Fluorescence per well was measured using a BMG FLUOstar fluorescence plate reader. The BFC metabolite 7-hydroxy-4-trifluoromethyl-coumarin was measured using an excitation wavelength of 410 nm and emission wavelength of 538 nm.

[1] = Hydrolytic stability by HPLC; conditions: pH 5.0, 37° C.
Protocol: A Waters 590 liquid chromatograph with a Waters 746 integrator and a Waters 486 UVN is detector, and a 25 cm Lichrospher RP18 column (5-μM particle size) was used. The mobile phase consisted of K2HPO4 25 mM, KH2PO4 30 mM, methanol at 262:13:725. The chromatographic separation was performed at 20° C. with a flow rate of 1.0 ml/min, the absorbance of the elluent was monitored at 210 nm.
Hydrolysis profiles (10 μM compound with 20% acetonitrile) were carried out in Soerensen phosphate buffer (pH 7.4 and pH 5.0) in a total volume of 10 ml. 100 μl samples were collected 0, 1, 2, 3, 4, 5, 24, 48 and 72 hours after incubation, with shaking, in a waterbath at 37° C. and manually injected into the HPLC over Rheodyne 7125 system. For profiles at pH 1.0 artificial stomach fluid (DAB 9), containing 2 g NaCl, 3,2 g pepsin and 80 ml 1 M HCL in 1.0 L of water was used. After 0, 1 and 2 hours 400 μl of sample were collected and extracted three times with 500 μl of ethyl ether by vortexing. The combined extracts were than evaporated to dryness by passing nitrogen through the solution. The residue was than dissolved in 400 μl of mobile phase of which […] were injected in the HPLC.

COS-7 chloride channel = test: Selectivity patch clamp, native chloride channels in COS-7 cells; assay type: cell-based, African green monkey; conditions: native chloride channel of COS-7 cells
Protocol: as §1
Recordings from the Jurkat SKCa channel were made in K^+ aspartate Ringer (Na^+ was replaced by K^+) with the same internal pipette solution. […]

human IKCa1 channel, sequence (O15554 whole entry): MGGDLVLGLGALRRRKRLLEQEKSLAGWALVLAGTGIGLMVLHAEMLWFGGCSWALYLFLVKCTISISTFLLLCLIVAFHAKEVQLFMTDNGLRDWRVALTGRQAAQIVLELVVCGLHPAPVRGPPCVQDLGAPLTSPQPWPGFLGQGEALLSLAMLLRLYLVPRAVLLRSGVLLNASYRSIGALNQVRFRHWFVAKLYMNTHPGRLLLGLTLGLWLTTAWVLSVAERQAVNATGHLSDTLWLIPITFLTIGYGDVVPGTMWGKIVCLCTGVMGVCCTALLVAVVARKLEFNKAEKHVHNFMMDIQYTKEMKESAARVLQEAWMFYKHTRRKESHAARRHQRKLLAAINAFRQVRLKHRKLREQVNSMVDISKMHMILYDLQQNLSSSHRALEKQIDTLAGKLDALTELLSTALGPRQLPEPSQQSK

| Kd (human IKCa1 channel) [µM] | inhibition at 30 min, 10 μM (CYP3A4) [%] | melting point [°C] | Structure (SMILES) | further results |
| --- | --- | --- | --- | --- |
| 0.06 | 10 |  | N#CC(c1ccccc1)(c1ccccc1)c1ccccc1Cl [Compound T39, 2-(2-Chlorophenyl)2,2-diphenylacetonitrile] | IKCa1 inhibition compared with clotrimazole (human IKCa1 channel): more potent inhibitors of IKCa1 channels than clotrimazole |
| 5 | -26 |  | FC(F)(F)c1ccccc1C(c1ccccc1)(c1ccccc1)n1cccn1 [Compound T58, 1-{Diphenyl[2-(trifluoromethyl)-phenyl]methyl}-1H-pyrazole] |  |
|  | 4 |  | CCOC(=O)C(C(=O)OCC)C(c1ccccc1)(c1ccccc1)c1ccccc1 [Compound T74] | Kd (human IKCa1 channel; read-out: Kd for block of IKCa1, hIKCa1 in COS-7 cells, reduction of slope conductance at −80 mV, 1 μM free Ca++ in pipette): 0.6 µM |
| 30 | 74 |  | Clc1ccccc1C(Nc1ccncc1)(c1ccccc1)c1ccccc1 [Compound T67, N-[(2-Chlorophenyl)diphenylmethyl]-N-(4-pyridyl)amine] |  |
| 0.06 | 9 | 144 | N#CC(c1ccccc1)(c1ccccc1)c1ccccc1F [Compound T40, 2-(2-Fluorophenyl)2,2-diphenylacetonitrile] | IKCa1 inhibition compared with clotrimazole (human IKCa1 channel): more potent inhibitors of IKCa1 channels than clotrimazole |
|  |  |  | Clc1ccccc1C(c1ccccc1)(c1ccccc1)n1ccnc1 [Clotrimazole, reference compound] | inhibition at 30 min, 0.1 μM (CYP3A4): 99%; hydrolysis: % T3 formed ([1]; after 48 h): 22%; hydrolysis: % T3 formed ([1]; after 72 h): 35%; Block of COS-7 (Cl) (COS-7 chloride channel): no effect at 10 μM (n = |
| 1.2 | -54 |  | CC(=O)NC(c1ccccc1)(c1ccccc1)c1ccccc1Cl [Compound T75, N-(2-chlorophenyl)diphenylmethyl acetamide] |  |
| 0.52 | -30.5 | 91 | OC(c1ccccc1)(c1ccccc1)c1ccccc1Cl [Compound T3, (2-Chlorophenyl)diphenyl methanol] |  |
| 32 |  | 198 | Clc1ccccc1C(NCCCNC(c1ccccc1)(c1ccccc1)c1ccccc1Cl)(c1ccccc1)c1ccccc1 [Compound T49, N,N-1,3-[(2-Chlorophenyl)diphenylmethyl]-amino propane] |  |
| 15 | 86.5 |  | Clc1ccccc1C(Nc1nccs1)(c1ccccc1)c1ccccc1 [Compound T66, N-[(2-Chlorophenyl)diphenylmethyl]-N-(1,3-thiazol-2yl)amine] |  |
| 1.5 |  | 185 | CC(=O)NC(c1ccccc1)(c1ccccc1)c1ccccc1C(F)(F)F [Compound T83, N-(2-Trifluoromethylphenyl)diphenylmethyl acetamide] |  |
|  |  | 86 | OC(c1ccccc1)(c1ccc(Cl)cc1)c1ccc(Cl)cc1 [Compound T4, Bis-(4-chlorophenyl)phenyl methanol] | Kd for block of IKCa1 (human IKCa1 channel; hIKCa1 in COS-7 cells, reduction of slope conductance at −80 mV, 1 μM free Ca++ in pipette): No effect at 1 μM |
| 2.5 |  | 202 | c1ccc(C(c2ccccc2)(c2ccccc2)n2cccn2)cc1 [Compound T11, 1-Trityl-1H-pyrazole] |  |
